Test results from patent US11708344B2, “Flavone derivatives for the treatment and prophylaxis of hepatitis B virus disease” (Hoffmann-La Roche Inc., priority 2018, dated 2023).

Columns and labels:
[1] = test system: HBeAg (surrogate marker for cccDNA) in HepDES19 cells; experiment: Engineered HepDES19 primary screen assay (HBeAg ELISA); type: cell-based, HBV; settings: Hepatitis B virus, HepDES19, 120 h, read-out: IC50 (HBeAg level, HepDES19 primary screen assay), HepDES19 cells, 5 days compound incubation, HBeAg ELISA
Method in brief: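 HepDES19 cells were induced by Tet withdrawal for 8 days, then treated with half-log compound dilutions (1% DMSO final) for 5 days at 37 °C. HBeAg was measured by ELISA as the cccDNA surrogate, viability by CCK-8, and IC50 from a 4-parameter logistic fit.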

[2] = test system: HBsAg in HBV-infected PHH; experiment: Cryopreserved primary human hepatocytes (PHH) HBV infection assay, extracellular HBsAg (CLIA); type: cell-based; settings: Hepatitis B virus, Hepatocyte, 216 h, read-out: HBsAg IC50, Cryopreserved PHH infected with HBV, 9 days post-compound treatment, extracellular HBsAg
Method in brief: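 Cryopreserved PHH were infected with 5.8×10^6 HBV genome equivalents in medium with 4% PEG8000 and 1% DMSO. After 9 days of treatment, extracellular HBsAg was measured by CLIA, and IC50 was derived from a 4-parameter logistic fit.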

[3] = Human microsome stability assay; type: in vitro ADME; settings: human liver microsomes, 1 μM test compound, 0.5 mg/mL microsomal protein, 37° C., pH 7.4, 0-30 minutes
Method in brief: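 Compound (1 μM) incubated at 37 °C with human liver microsomes (0.5 mg/mL protein) in 100 mM potassium phosphate, pH 7.4, after 10 min preincubation; started with NADPH regenerating system. Sampled at 0–30 min, quenched with cold ACN; remaining parent quantified by LC-MS/MS, with no-NADPH controls.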

## COc1cc(OCCO[C@H]2C[C@@H](C(=O)O)C2)c(-c2cc(=O)c3c(C(F)(F)F)ccc(Cl)c3o2)cc1OC [Example C096, Cis-3-[2-[2-[8-chloro-4-oxo-5-(trifluoromethyl)chromen-2-yl]-4,5-dimethoxy-phenoxy]ethoxy]cyclobutanecarboxylic acid]
[1]
  IC50: 3480 nM
[2]
  IC50: 7780 nM
[3]
  Clearance of Human microsome: 6.15 mL/min/kg

## O=c1cc(-c2cc(F)ccc2OCCO[C@H]2C[C@H](C(=O)O)C2)oc2c(Cl)cccc12 [Example C033-B, Trans-3-[2-[2-(8-chloro-4-oxo-chromen-2-yl)-4-fluoro-phenoxy]ethoxy]cyclobutanecarboxylic acid]
[1]
  IC50: 927 nM
[2]
  IC50: 4330 nM
[3]
  Clearance of Human microsome: 6.15 mL/min/kg

## O=c1cc(-c2ccc(C(F)(F)F)cc2O[C@H]2C[C@H](C(=O)NS(=O)(=O)C3CC3)C2)oc2c(Cl)cccc12 [Example B043-B, trans-3-[2-(8-chloro-4-oxo-chromen-2-yl)-5-(trifluoromethyl)phenoxy]-N-cyclopropylsulfonyl-cyclobutanecarboxamide]
[1]
  IC50: 1140 nM
[2]
  IC50: 3700 nM
[3]
  Clearance of Human microsome: 6.15 mL/min/kg

## O=C(O)[C@@H]1C[C@H](Oc2cc(Br)ccc2-c2cc(=O)c3cccc(Cl)c3o2)CN1S(=O)(=O)c1ccccc1 [Example B082]
[1]
  IC50: 1980 nM
[2]
  IC50: 4800 nM
[3]
  Clearance of Human microsome: 6.15 mL/min/kg

## O=c1cc(-c2ccccc2O[C@H]2C[C@@H](C(=O)O)C2)oc2c(Cl)cccc12 [Example B002-A, cis-3-[2-(8-chloro-4-oxo-chromen-2-yl)phenoxy]cyclobutanecarboxylic acid]
[1]
  IC50: 162 nM
[2]
  IC50: 2020 nM
[3]
  Clearance of Human microsome: 6.15 mL/min/kg

## Cc1cc(-c2cc(=O)c3cccc(Cl)c3o2)c(OCCCC(=O)O)cc1Cl [Example A057, 4-[5-chloro-2-(8-chloro-4-oxo-chromen-2-yl)-4-methyl-phenoxy]butanoic acid]
[1]
  IC50: 1330 nM
[2]
  IC50: 9760 nM
[3]
  Clearance of Human microsome: 6.15 mL/min/kg

## COc1cc(OCCO[C@H]2C[C@@H](C(=O)NS(C)(=O)=O)C2)c(-c2cc(=O)c3cccc(Cl)c3o2)cc1OC [Example C125, 3-[2-[2-(8-chloro-4-oxo-chromen-2-yl)-4,5-dimethoxy-phenoxy]ethoxy]-N-methylsulfonyl-cyclobutanecarboxamide]
[1]
  IC50: 4910 nM
[2]
  IC50: 7170 nM
[3]
  Clearance of Human microsome: 6.15 mL/min/kg

## O=C(O)[C@H](COc1cc(C(F)(F)F)ccc1-c1cc(=O)c2cccc(Cl)c2o1)NS(=O)(=O)C1CC1 [Example A096, (2S)-3-[2-(8-chloro-4-oxo-chromen-2-yl)-5-(trifluoromethyl)phenoxy]-2-(cyclopropylsulfonylamino)propanoic acid]
[1]
  IC50: 114 nM
[2]
  IC50: 1240 nM
[3]
  Clearance of Human microsome: 6.15 mL/min/kg

## O=C(O)C1CC(OCCCOc2cc(C(F)(F)F)ccc2-c2cc(=O)c3cccc(Cl)c3o2)C1 (stereo not drawn) [Example C103, 3-[3-[2-(8-chloro-4-oxo-chromen-2-yl)-5-(trifluoromethyl)phenoxy]propoxy]cyclobutanecarboxylic acid]
[1]
  IC50: 2280 nM
[2]
  IC50: 7560 nM
[3]
  Clearance of Human microsome: 6.15 mL/min/kg

## O=c1cc(-c2cc(C(F)(F)F)c(Br)cc2O[C@H]2C[C@H](C(=O)O)C2)oc2c(Cl)cccc12 [Example B024, Trans-3-[5-bromo-2-(8-chloro-4-oxo-chromen-2-yl)-4-(trifluoromethyl)phenoxy]cyclobutanecarboxylic acid]
[1]
  IC50: 1640 nM
[2]
  IC50: 6840 nM
[3]
  Clearance of Human microsome: 7.41 mL/min/kg

## Cc1cc(-c2cc(=O)c3cccc(Cl)c3o2)c(OCCC(=O)O)cc1Cl [Example A005, 3-[5-chloro-2-(8-chloro-4-oxo-chromen-2-yl)-4-methyl-phenoxy]propanoic acid]
[1]
  IC50: 1370 nM
[2]
  IC50: 553 nM
[3]
  Clearance of Human microsome: 6.66 mL/min/kg

## COc1cc(-c2cc(=O)c3cccc(Cl)c3o2)c(OCCCOCC(=O)O)cc1Br [Example C013, 2-[3-[5-bromo-2-(8-chloro-4-oxo-chromen-2-yl)-4-methoxy-phenoxy]propoxy]acetic acid]
[1]
  IC50: 252 nM
[2]
  IC50: 9320 nM
[3]
  Clearance of Human microsome: 6.15 mL/min/kg

## O=C(O)[C@@H]1C[C@H](Oc2cc(Br)ccc2-c2cc(=O)c3cccc(Cl)c3o2)CN1S(=O)(=O)C1CC1 [Example B083, (2S,4S)-4-[5-bromo-2-(8-chloro-4-oxo-chromen-2-yl)phenoxy]-1-cyclopropylsulfonyl-pyrrolidine-2-carboxylic acid]
[1]
  IC50: 704 nM
[2]
  IC50: 3240 nM
[3]
  Clearance of Human microsome: 6.15 mL/min/kg

## O=C(O)CCOc1cc(Br)cnc1-c1cc(=O)c2cccc(Cl)c2o1 [Example A026, 3-[[5-bromo-2-(8-chloro-4-oxo-chromen-2-yl)-3-pyridyl]oxy]propanoic acid]
[1]
  IC50: 2970 nM
[2]
  IC50: 2970 nM
[3]
  Clearance of Human microsome: 6.15 mL/min/kg

## O=c1cc(-c2ccccc2OCCO[C@H]2C[C@@H](C(=O)O)C2)oc2c(Cl)cc(F)cc12 [Example C036-A, Cis-3-[2-[2-(8-chloro-6-fluoro-4-oxo-chromen-2-yl)phenoxy]ethoxy]cyclobutanecarboxylic acid]
[1]
  IC50: 261 nM
[2]
  IC50: 2420 nM
[3]
  Clearance of Human microsome: 6.15 mL/min/kg

## O=C(O)[C@H]1CCN(C(=O)COc2cc(C(F)(F)F)ccc2-c2cc(=O)c3cccc(Cl)c3o2)C1 [Example A083, (3S)-1-[2-[2-(8-chloro-4-oxo-chromen-2-yl)-5-(trifluoromethyl)phenoxy]acetyl]pyrrolidine-3-carboxylic acid]
[1]
  IC50: 5570 nM
[2]
  IC50: 9740 nM
[3]
  Clearance of Human microsome: 6.15 mL/min/kg

## O=c1cc(-c2ccccc2OC[C@H]2C[C@H](C(=O)O)C2)oc2c(Cl)cccc12 [Example B026-B, Trans-3-[[2-(8-chloro-4-oxo-chromen-2-yl)phenoxy]methyl]cyclobutanecarboxylic acid]
[1]
  IC50: 138 nM
[2]
  IC50: 3190 nM
[3]
  Clearance of Human microsome: 6.15 mL/min/kg

## O=c1cc(-c2ccccc2OCCO[C@H]2C[C@@H](C(=O)O)C2)oc2c(Cl)cccc12 [Example C025-A, Cis-3-[2-[2-(8-chloro-4-oxo-chromen-2-yl)phenoxy]ethoxy]cyclobutanecarboxylic acid]
[1]
  IC50: 191 nM
[2]
  IC50: 2580 nM
[3]
  Clearance of Human microsome: 6.15 mL/min/kg

## COc1cc(O[C@H]2C[C@H](C(=O)NS(C)(=O)=O)C2)c(-c2cc(=O)c3cccc(Cl)c3o2)cc1C [Example B050-B, Trans-3-[2-(8-chloro-4-oxo-chromen-2-yl)-5-methoxy-4-methyl-phenoxy]-N-methylsulfonyl-cyclobutanecarboxamide]
[1]
  IC50: 6080 nM
[2]
  IC50: 9460 nM
[3]
  Clearance of Human microsome: 7.69 mL/min/kg

## COc1cc(OCCO[C@H]2C[C@@H](C(=O)NS(=O)(=O)C3CC3)C2)c(-c2cc(=O)c3cccc(Cl)c3o2)cc1OC [Example C119, Cis-3-[2-[2-(8-chloro-4-oxo-chromen-2-yl)-4,5-dimethoxy-phenoxy]ethoxy]-N-cyclopropylsulfonyl-cyclobutanecarboxamide]
[1]
  IC50: 3480 nM
[2]
  IC50: 7210 nM
[3]
  Clearance of Human microsome: 6.39 mL/min/kg

## O=c1cc(-c2ccccc2O[C@H]2C[C@H](C(=O)O)C2)oc2c(Cl)cccc12 [Example B002-B, trans-3-[2-(8-chloro-4-oxo-chromen-2-yl)phenoxy]cyclobutanecarboxylic acid]
[1]
  IC50: 112 nM
[2]
  IC50: 3350 nM
[3]
  Clearance of Human microsome: 6.15 mL/min/kg

## O=C(O)C1CC(Oc2cc(OC(F)(F)F)c(Br)cc2-c2cc(=O)c3cccc(Cl)c3o2)C1 (stereo not drawn) [Example B007, 3-[4-bromo-2-(8-chloro-4-oxo-chromen-2-yl)-5-(trifluoromethoxy)phenoxy]cyclobutanecarboxylic acid]
[1]
  IC50: 2310 nM
[2]
  IC50: 2240 nM
[3]
  Clearance of Human microsome: 6.15 mL/min/kg

## O=c1cc(-c2cc(F)ccc2OCCO[C@H]2C[C@@H](C(=O)O)C2)oc2c(Cl)cccc12 [Example C033-A, Cis-3-[2-[2-(8-chloro-4-oxo-chromen-2-yl)-4-fluoro-phenoxy]ethoxy]cyclobutanecarboxylic acid]
[1]
  IC50: 1340 nM
[2]
  IC50: 1970 nM
[3]
  Clearance of Human microsome: 6.15 mL/min/kg

## COc1cc(OCCO[C@H]2C[C@@H](C(=O)O)C2)c(-c2cc(=O)c3cccc(Cl)c3o2)cc1OCC(F)(F)F [Example C085, cis-3-[2-[2-(8-chloro-4-oxo-chromen-2-yl)-5-methoxy-4-(2,2,2-trifluoroethoxy)phenoxy]ethoxy]cyclobutanecarboxylic acid]
[1]
  IC50: 271 nM
[2]
  IC50: 9020 nM
[3]
  Clearance of Human microsome: 6.15 mL/min/kg

## COc1cc(OCCO[C@H]2C[C@@H](C(=O)O)C2)c(-c2cc(=O)c3cccc(Cl)c3o2)cc1OC(F)F [Example C086, cis-3-[2-[2-(8-chloro-4-oxo-chromen-2-yl)-4-(difluoromethoxy)-5-methoxy-phenoxy]ethoxy]cyclobutanecarboxylic acid]
[1]
  IC50: 5030 nM
[2]
  IC50: 5460 nM
[3]
  Clearance of Human microsome: 6.15 mL/min/kg

## Cc1cc(-c2cc(=O)c3cccc(Cl)c3o2)c(OCCCC(=O)O)cc1Br [Example A054, 4-[5-bromo-2-(8-chloro-4-oxo-chromen-2-yl)-4-methyl-phenoxy]butanoic acid]
[1]
  IC50: 1470 nM
[2]
  IC50: 4210 nM
[3]
  Clearance of Human microsome: 6.15 mL/min/kg
